Test [1] has as its target T1, (recombinant) catalytic domain of human Bub1 (amino acids 704-1085) (Homo sapiens, UniProt O43683).
T1 construct: catalytic domain of human Bub1 (amino acids 704-1085); 6xHis (N); made in house; host or cells: Hi5 insect cells
Put plainly: Bub1 kinase assay (TR-FRET). To be noted: ATP 10 μM, 60 min reaction, pH 7.5; read-out: Biological Assay 1: Bub1 kinase assay median IC50. The class given is biochemical.

Test [2] deals with histone 2A phosphorylation (kinase activity of Bub1). Put plainly: H2A Formation-Assay (cell-based mechanistic assay, co-treatment with Nocodazole). To be noted: 16 h, read-out: Biological Assay 4.1: H2A Formation IC50.
Test [3] has as its target T1, (recombinant) catalytic domain of human Bub1 (amino acids 704-1085). Description: Equilibrium probe competition assay (TR-FRET kinase binding assay). To be noted: read-out: IC50 (Assay 5, probe competition). The text has this:
Equilibrium Probe Competition Assay:
Bub1 binding affinity of compounds described in the present invention were quantified using a time-resolved fluorescence energy transfer (TR-FRET) kinase binding assay which measures displacement of the synthetic fluorescent probe 5-[({2-[2-({2-[1-(4-ethoxy-2,6-difluorobenzyl)-1H-indazol-3-yl]-4-(pyridin-4-ylamino)pyrimidin-5-yl}oxy)ethoxy]ethyl}carbamothioyl)amino]-2-(6-hydroxy-3-oxo-3H-xanthen-9-yl)benzoic acid (5-5-1) by the (recombinant) catalytic domain of human Bub1 (amino acids 704-1085). The enzyme was expressed in Hi5 insect cells with N-terminal 6×His/AviTag@ seqences, purified by affinity-(Ni-NTA) and size exclusion chromatography and site-specific biotinylated ex-vivo using a commercially available kit (Avidity).
In a typical assay 11 different concentrations of each compound (0.1 nM, 0.33 nM, 1.1 nM, 3.8 nM, 13 nM, 44 nM, ˜0.15 μM, ˜0.51 μM, ˜1.7 μM, 5.9 μM and 20 μM) were tested in duplicate within the same microtiter plate. To this end, 100-fold concentrated compound solutions (in DMSO) were made by serial dilution (1:3.4) of freshly prepared 2 mM stocks in a clear low volume 384-well source microtiter plate (Greiner Bio-One, Frickenhausen, Germany), from which 50 nl of compounds were transferred into a black low volume test microtiter plate from the same supplier. Subsequently 2 μL of a solution containing biotinylated Bub1 (the final concentration of Bub1 was adjusted depending on the activity of the enzyme lot in order to be within the linear dynamic range of the assay: typically ˜200 pM were used) and 1 nM Streptavidin Terbium Cryptate (Cisbio, No. 610SATLB) in aqueous assay buffer [50 mM Tris/HCl pH 7.5, 200 mM potassium chloride (KCl), 1.0 mM dithiothreitol (DTT), 0.1 mM sodium ortho-vanadate, 1% (v/v) glycerol, 0.01% (w/v) bovine serum albumine (BSA), 0.005% (v/v) Triton X-100 (Sigma), were added to the compounds in the test plate and the mixture was incubated for 15 min at 22′C to allow pre-equilibration of the putative enzyme-inhibitor complexes before the start of the probe competition reaction, which was initiated by the addition of 3 μL 1.67-fold concentrated solution (in assay buffer) of 5-5-1 (final concentration: 1.5 nM). The resulting mixture (5 μL final volume) was Incubated at 220 during 0, 15, 30, 60, 120, 240 and 1440 min. After each time point the resonance energy transfer from the Streptavidin Tb cryptate to the 3′,6′-dihydroxy-3H-spiro[2-benzofuran-1,9′-xanthen]-3-one moiety of 5-5-1 was measured in order to quantify the amount of fluorescent probe displaced by the test compounds. To this end, the fluorescence emissions at 520 nm and 490 nm after excitation at 330-350 nm were measured in a Pherastar FS TR-FRET plate reader, (BMG Lab technologies, Offenburg, Germany) and the ratio of the emissions (520 nm/490 nm) was taken as Indicator for the amount of Bub1/5-5-1 equilibrium complexes. The data were normalized using two sets of control wells for high-(=enzyme reaction without inhibitor=0%=Minimum inhibition) and low-(=all assay components without enzyme=100%=Maximum inhibition) Bub1 activity. IC50 values were calculated by fitting the normalized inhibition data to a 4-parameter logistic equation (Minimum, Maximum, IC50, Hill; Y=Max+(Min−Max)/(1+(X/IC50)Hill)).

Test [4] deals with pre-induced phospho-histone 2A (kinase activity of Bub1). Description: H2A Abrogation-Assay (cell-based mechanistic assay, pre-treatment with Nocodazole). To be noted: Nocodazole 16 h, then test compound 1 h; read-out: Biological Assay 4:2: H2A Abrogation IC50. The text has this:
Biological Assay 4.2: Abrogation-Assay
This assay measures the inhibition of histone 2A phosphorylation, which was induced by pre-treatment of the cells with Nocodazole, by a Bub1 kinase inhibitor.

Test [5] has as its system HeLa human cervical tumor cells. Put plainly: Proliferation Assay (HeLa + Paclitaxel). The class given is cell-based. The following applies: 3 nM paclitaxel, test substance 92 hours; read-out: Biological Assay 3: Proliferation Assay (HeLa + Paclitaxel) IC50. The text has this: Proliferation Assay (HeLa+Paclitaxel):
The test system is the same in test [6]. Put plainly: Proliferation assay (HeLa cell line). The class given is cell-based. To be noted: 96 h, 4 days incubation, crystal violet, read-out: Biological Assay 2: Proliferation assay (HeLa cell line) median IC50. The text has this:
Human tumour cells were originally obtained from the American Type Culture Collection (ATCC), the Deutsche Sammlung von Mikroorganismen und Zellkulturen (DSMZ, German Collection of Microorganisms and Cell Cultures), or Epo GmbH Berlin.

Bounds are passed on as bounds.

For `CCOc1cc(F)c(Cn2nc(-c3ncc(OCCCO)c(Nc4ccnc(NC(C)=O)c4)n3)c3ccccc32)c(F)c1` [Example 2-1-5, N-[4-({2-[1-(4-ethoxy-2,6-difluorobenzyl)-1H-indazol-3-yl]-5-(3-hydroxypropoxy)pyrimidin-4-yl}amino)pyridin-2-yl]acetamide], the IC50 in test [1] turned out to be 3.5 nM; in test [2], 28 nM; in test [3] (Time 15 min) it was 0.59 nM; in test [3] (Time 30 min), 0.49 nM; in test [3] (Time 60 min), 0.32 nM; in test [3] (Time 90 min) it was 0.26 nM. The IC50 in test [3] (Time 120 min) is 0.2 nM; in test [3] (Time 240 min), 0.16 nM; in test [3] (Time 1440 min) it was 0.098 nM; in test [4] it was 4.4 nM; in test [5] it was 100 nM; in test [6], more than 10000 nM.
On to `CCOc1cc(F)c(Cn2nc(-c3ncc(OCCCO)c(Nc4ccncc4Cl)n3)c3ccccc32)c(F)c1` [Example 2-1-6, 3-{[4-[(3-chloropyridin-4-yl)amino]-2-[1-(4-ethoxy-2,6-difluorobenzyl)-1H-indazol-3-yl]pyrimidin-5-yl}oxy)propan-1-ol], for which the IC50 in test [1] came out at 8.3 nM; in test [2], 45 nM; in test [3] (Time 15 min), 1.7 nM; in test [3] (Time 30 min), 0.87 nM; in test [3] (Time 60 min) it was 0.85 nM; in test [3] (Time 90 min) it was 1.2 nM. For the same compound, the IC50 in test [3] (Time 120 min) came out at 0.38 nM; in test [3] (Time 240 min), 0.31 nM; in test [3] (Time 1440 min), 0.2 nM; in test [4], 58 nM; in test [5] it was 120 nM; in test [6], 5900 nM.
